Measured values reported in patent US9381174B2, “Composition and method for exterminating animal parasite” (Mitsui Chemicals Agro, Inc., priority 2012, dated 2016).

Tested on: Ctenocephalides felis
Assay: Insecticidal Test for Ctenocephalides felis (treated filter paper contact)
Type: in vivo
Conditions: 50 μg/cm^2 on filter paper; emerged adult fleas; 72 hours of exposure; dead including moribund; in triplicate
Method: 0.2 mL of an acetone solution was added dropwise to a round filter paper having a diameter of 4.0 cm that were grasped with tweezers so that each of the compounds was included in an amount of 50 μg/cm^2. After the addition, the filter paper was dried at room temperature for 24 hours for use in the test.
Three 200 mL vials were used per compound. The filter paper treated with a test agent was placed tightly into a lid of the vials so that fleas might be contacted with the paper.
About 20 emerged adult fleas were added to each of the 200 mL vials using an aspirator. Then immediately, the vial was sealed with the lid into which the filter paper that was treated with the agent was tightly placed. It was examined if the fleas that were already dead were added. In a case in which dead fleas were found, the number of the dead fleas was subtracted from the total number.
The vials were turned upside down so that the fleas were always contacted with the filter paper. After 24, 48, and 72 hours of the exposure, the conditions of the fleas were examined and classified into “alive” and “dead (including a moribund condition)” to determine the death rates (in triplicate). The death rates after 72 hours are illustrated in Table 8.
The death rates were calculated as follows: Death Rate (%)=(Number of Dead Fleas including Moribund Fleas)/Total Number of Fleas×100

| Structure (SMILES) | Death Rate after 72 hours (%) |
| --- | --- |
| CN(CCF)C(=O)C(=O)Nc1cccc(C(=O)Nc2c(Br)cc(C(F)(C(F)(F)F)C(F)(F)F)cc2C(F)(F)F)c1F [Compound No. 6-1, 2-fluoro-3-[N-(2-fluoroethyl)-N-methylaminoxalylamino]-N-[2-bromo-4-heptafluoroisopropyl-6-(trifluoromethyl)phenyl]benzamide] | 100% |
| CN(CCF)C(=O)C(=O)Nc1cccc(C(=O)Nc2c(I)cc(C(F)(C(F)(F)F)C(F)(F)F)cc2C(F)(F)F)c1F [Compound No. 6-2, 2-fluoro-3-[N-(2-fluoroethyl)-N-methylaminoxalylamino]-N-[2-iodo-4-heptafluoroisopropyl-6-(trifluoromethyl)phenyl]benzamide] | 100% |
| CCN(C)C(=O)C(=O)Nc1cccc(C(=O)Nc2c(Br)cc(C(F)(C(F)(F)F)C(F)(F)F)cc2OC(F)F)c1 [Compound No. 5-15] | 80.0% |

Tested on: Haemaphyxalis Longicornis
Assay: Dry Film Insecticidal Test for Haemaphyxalis Longicornis
Type: in vivo
Conditions: 1 ml of 1 ppm acetone solution dried on 9 cm glass petri dish; young ticks; 48 hours of exposure; 25° C.; dead and anguish ticks
Method: 1 ml of an acetone solution that was prepared so that the compound was included at a concentration of 1 ppm was added dropwise to a glass petri dish having a diameter of 9 cm. After the addition, the acetone was air-dried for use in the test. About 10 young ticks were added. Then the dish was covered by a plastic film and sealed with a lid. The dish was placed in a constant temperature bath that was set at a temperature of 25° C., at a humidity of 100%, and with a light:dark cycle of 16:8.
After 48 hours of the exposure, the conditions of the ticks were examined and classified into “alive”, “dead (including a moribund condition)”, and “anguish”. The death rates after 48 hours are illustrated in Table 9.
The death rates were calculated as follows: Death Rate (%)=(Number of Dead and Anguish Ticks)/Total Number of Ticks×100

| Structure (SMILES) | Death Rate after 48 hours (%) |
| --- | --- |
| CN(CCF)C(=O)C(=O)Nc1cccc(C(=O)Nc2c(Br)cc(C(F)(C(F)(F)F)C(F)(F)F)cc2C(F)(F)F)c1F [Compound No. 6-1, 2-fluoro-3-[N-(2-fluoroethyl)-N-methylaminoxalylamino]-N-[2-bromo-4-heptafluoroisopropyl-6-(trifluoromethyl)phenyl]benzamide] | 100% |
| CN(CC(F)(F)F)C(=O)C(=O)Nc1cccc(C(=O)Nc2c(Br)cc(C(F)(C(F)(F)F)C(F)(F)F)cc2S(=O)(=O)C(F)(F)F)c1F [6-8] | 100% |
| CN(CCF)C(=O)C(=O)Nc1cccc(C(=O)Nc2c(I)cc(C(F)(C(F)(F)F)C(F)(F)F)cc2C(F)(F)F)c1F [Compound No. 6-2, 2-fluoro-3-[N-(2-fluoroethyl)-N-methylaminoxalylamino]-N-[2-iodo-4-heptafluoroisopropyl-6-(trifluoromethyl)phenyl]benzamide] | 100% |
| CCN(C)C(=O)C(=O)N(C)c1cccc(C(=O)Nc2c(I)cc(C(F)(C(F)(F)F)C(F)(F)F)cc2OC(F)F)c1F [6-14] | 100% |
| CN(CC(F)(F)F)C(=O)C(=O)Nc1cccc(C(=O)Nc2c(Br)cc(C(F)(C(F)(F)F)C(F)(F)F)cc2[S+]([O-])C(F)(F)F)c1F (stereo not drawn) [6-7] | 100% |
| CN(CC(F)(F)F)C(=O)C(=O)Nc1cccc(C(=O)Nc2c(I)cc(C(F)(C(F)(F)F)C(F)(F)F)cc2SC(F)(F)F)c1F [6-9] | 100% |
| CN(CC(F)(F)F)C(=O)C(=O)Nc1cccc(C(=O)Nc2c(Cl)cc(C(F)(C(F)(F)F)C(F)(F)F)cc2C(F)(F)F)c1F [6-3] | 100% |
| CCN(C)C(=O)C(=O)N(C)c1cccc(C(=O)Nc2c(I)cc(C(F)(C(F)(F)F)C(F)(F)C(F)(F)F)cc2S(=O)(=O)C(F)(F)F)c1F (stereo not drawn) [6-20] | 100% |
| CCN(C)C(=O)C(=O)N(C)c1cccc(C(=O)Nc2c(C)cc(C(F)(C(F)(F)F)C(F)(F)C(F)(F)F)cc2OC(F)F)c1F (stereo not drawn) [6-16] | 100% |
| CN(CC(F)(F)F)C(=O)C(=O)Nc1cccc(C(=O)Nc2c(Br)cc(C(F)(C(F)(F)F)C(F)(F)F)cc2SC(F)(F)F)c1F [6-6] | 100% |
| CN(CC(F)(F)F)C(=O)C(=O)N(C)c1cccc(C(=O)Nc2c(I)cc(C(F)(C(F)(F)F)C(F)(F)F)cc2C(F)(F)F)c1F [6-5] | 100% |
| CN(CC(F)(F)F)C(=O)C(=O)N(C)c1cccc(C(=O)Nc2c(Br)cc(C(F)(C(F)(F)F)C(F)(F)F)cc2C(F)(F)F)c1F [6-4] | 100% |
| CN(CC(F)(F)F)C(=O)C(=O)N(C)c1cccc(C(=O)Nc2c(Br)cc(C(F)(C(F)(F)F)C(F)(F)F)cc2OC(F)F)c1F [6-13] | 100% |
| CN(CC(F)(F)F)C(=O)C(=O)Nc1cccc(C(=O)Nc2c(Br)cc(C(F)(C(F)(F)F)C(F)(F)F)cc2Br)c1F [Compound No. 4-66] | 100% |
| CN(CC(F)(F)F)C(=O)C(=O)N(C)c1cccc(C(=O)Nc2c(I)cc(C(F)(C(F)(F)F)C(F)(F)C(F)(F)F)cc2S(=O)(=O)C(F)(F)F)c1F (stereo not drawn) [6-19] | 100% |
| CN(CC(F)(F)F)C(=O)C(=O)Nc1cccc(C(=O)Nc2c(Br)cc(C(F)(C(F)(F)F)C(F)(F)F)cc2OC(F)F)c1F [6-12] | 100% |
| CCN(C)C(=O)C(=O)Nc1cccc(C(=O)Nc2c(Br)cc(C(F)(C(F)(F)F)C(F)(F)F)cc2OC(F)F)c1 [Compound No. 5-15] | 100% |
| CCN(C)C(=O)C(=O)N(C)c1cccc(C(=O)Nc2c(I)cc(C(F)(C(F)(F)F)C(F)(F)C(F)(F)F)cc2OC(F)F)c1F (stereo not drawn) [6-15] | 100% |
| CN(CC(F)(F)F)C(=O)C(=O)Nc1cccc(C(=O)Nc2c(I)cc(C(F)(C(F)(F)F)C(F)(F)F)cc2[S+]([O-])C(F)(F)F)c1F (stereo not drawn) [6-10] | 100% |
| CN(CC(F)(F)F)C(=O)C(=O)N(C)c1cccc(C(=O)Nc2c(I)cc(C(F)(C(F)(F)F)C(F)(F)C(F)(F)F)cc2SC(F)(F)F)c1F (stereo not drawn) [6-18] | 100% |
| CN(CC(F)(F)F)C(=O)C(=O)Nc1cccc(C(=O)Nc2c(I)cc(C(F)(C(F)(F)F)C(F)(F)F)cc2S(=O)(=O)C(F)(F)F)c1F [6-11] | 100% |
